In ChEMBL document CHEMBL5126653, “Targeted Degradation of Androgen Receptor for the Potential Treatment of Prostate Cancer” (ACS Med Chem Lett, 2022):

Each compound was assayed against Protein cereblon/Androgen receptor (Homo sapiens) (UniProt P10275+Q96SW2) (assay: In vivo protac activity at CRBN/AR in human VCaP cells xenografted in CB17 mouse assessed as increase in Androgen receptor degradation at 10 mg/kg, po for 16 hrs by ELISA).
Format: functional, organism-based

Sequence of Protein cereblon/Androgen receptor (Homo sapiens) (P10275 whole entry, looked up): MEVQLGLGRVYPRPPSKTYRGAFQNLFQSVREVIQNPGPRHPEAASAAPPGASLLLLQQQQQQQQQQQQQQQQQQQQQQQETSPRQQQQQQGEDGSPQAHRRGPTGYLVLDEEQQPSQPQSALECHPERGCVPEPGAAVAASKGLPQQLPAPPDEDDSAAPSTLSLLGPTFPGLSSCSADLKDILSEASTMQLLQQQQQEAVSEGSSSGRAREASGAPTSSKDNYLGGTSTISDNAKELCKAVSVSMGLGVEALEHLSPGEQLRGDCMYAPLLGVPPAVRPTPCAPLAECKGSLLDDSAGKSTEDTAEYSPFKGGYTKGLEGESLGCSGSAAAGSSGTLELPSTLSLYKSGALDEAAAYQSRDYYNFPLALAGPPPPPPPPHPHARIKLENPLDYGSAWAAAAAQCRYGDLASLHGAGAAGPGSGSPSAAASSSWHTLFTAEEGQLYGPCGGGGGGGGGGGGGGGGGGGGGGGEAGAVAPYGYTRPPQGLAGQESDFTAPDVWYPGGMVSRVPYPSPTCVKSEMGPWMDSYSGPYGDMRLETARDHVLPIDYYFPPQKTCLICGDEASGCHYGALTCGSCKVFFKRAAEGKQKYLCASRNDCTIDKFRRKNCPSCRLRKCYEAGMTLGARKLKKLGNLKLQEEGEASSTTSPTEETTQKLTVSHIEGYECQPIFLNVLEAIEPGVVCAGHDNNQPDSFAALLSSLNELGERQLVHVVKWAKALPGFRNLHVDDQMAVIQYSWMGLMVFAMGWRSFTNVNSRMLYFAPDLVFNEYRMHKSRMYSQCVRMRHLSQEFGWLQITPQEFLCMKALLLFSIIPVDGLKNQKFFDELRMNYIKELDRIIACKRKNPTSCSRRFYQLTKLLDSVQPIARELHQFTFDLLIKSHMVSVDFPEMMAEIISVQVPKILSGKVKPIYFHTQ
Sequence of Protein cereblon/Androgen receptor (Homo sapiens) (Q96SW2 whole entry, looked up): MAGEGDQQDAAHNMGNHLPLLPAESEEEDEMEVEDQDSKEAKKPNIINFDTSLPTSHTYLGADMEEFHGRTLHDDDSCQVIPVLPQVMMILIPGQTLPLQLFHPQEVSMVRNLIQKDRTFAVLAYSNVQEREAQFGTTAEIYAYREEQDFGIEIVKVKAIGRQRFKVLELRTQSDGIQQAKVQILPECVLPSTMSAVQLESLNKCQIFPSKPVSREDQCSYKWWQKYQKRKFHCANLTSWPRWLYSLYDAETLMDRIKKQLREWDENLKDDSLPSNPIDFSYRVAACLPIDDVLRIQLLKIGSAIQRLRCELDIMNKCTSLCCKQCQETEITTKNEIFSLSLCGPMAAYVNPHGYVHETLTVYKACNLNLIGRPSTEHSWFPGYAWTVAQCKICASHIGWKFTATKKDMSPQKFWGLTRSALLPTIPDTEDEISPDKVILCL

Row | SMILES | Activity [%]
1 | CC1(C)[C@H](NC(=O)c2ccc(N3CCN(CC4CN(c5ccc6c(c5)C(=O)N(C5CCC(=O)NC5=O)C6=O)C4)CC3)cc2)C(C)(C)[C@H]1Oc1ccc(C#N)c(Cl)c1 (stereo not given in full) | < 1
2 | CC1(C)[C@H](NC(=O)c2ccc(C3CCC(CN4CCN(c5ccc6c(c5)C(=O)N(C5CCC(=O)NC5=O)C6=O)CC4)CC3)cc2)C(C)(C)[C@H]1Oc1ccc(C#N)c(Cl)c1 (stereo not given in full) | 1
3 | CC1(C)[C@H](NC(=O)c2cnc(N3CCN(CCCCCOc4ccc5c(c4)C(=O)N(C4CCC(=O)NC4=O)C5=O)CC3)nc2)C(C)(C)[C@H]1Oc1ccc(C#N)c(Cl)c1 (stereo not given in full) | < 1
4 | CC1(C)[C@H](NC(=O)c2ccc(N3CCN(CC4CCN(c5ccc6c(c5)C(=O)N(C5CCC(=O)NC5=O)C6=O)CC4)CC3)cc2)C(C)(C)[C@H]1Oc1ccc(C#N)c(Cl)c1 (stereo not given in full) | 1
5 | CC1(C)[C@H](NC(=O)c2ncc(N3CCN(CCCCCOc4ccc5c(c4)C(=O)N(C4CCC(=O)NC4=O)C5=O)CC3)cn2)C(C)(C)[C@H]1Oc1ccc(C#N)c(Cl)c1 (stereo not given in full) | 1
6 | CC1(C)[C@H](NC(=O)c2ccc(CCCCN3CCN(c4ccc5c(c4)C(=O)N(C4CCC(=O)NC4=O)C5=O)CC3)nc2)C(C)(C)[C@H]1Oc1ccc(C#N)c(Cl)c1 (stereo not given in full) | 10
7 | CC1(C)[C@H](NC(=O)c2ccc(N3CCC(CN4CCN(c5ccc6c(c5)C(=O)N(C5CCC(=O)NC5=O)C6=O)CC4)CC3)nc2)C(C)(C)[C@H]1Oc1ccc(C#N)c(Cl)c1 (stereo not given in full) | < 1
8 | CC1(C)[C@H](NC(=O)c2ccc(N3CCN(CCCCCOc4ccc5c(c4)C(=O)N(C4CCC(=O)NC4=O)C5=O)CC3)nc2)C(C)(C)[C@H]1Oc1ccc(C#N)c(Cl)c1 (stereo not given in full) | < 1
9 | CC1(C)[C@H](NC(=O)c2ccc(N3CCN(CCCOc4ccc5c(c4)C(=O)N(C4CCC(=O)NC4=O)C5=O)CC3)cc2)C(C)(C)[C@H]1Oc1ccc(C#N)c(Cl)c1 (stereo not given in full) | < 1
10 | CC1(C)[C@H](NC(=O)c2cnc(N3CCC(CN4CCN(c5ccc6c(c5)C(=O)N(C5CCC(=O)NC5=O)C6=O)CC4)CC3)nc2)C(C)(C)[C@H]1Oc1ccc(C#N)c(Cl)c1 (stereo not given in full) | < 1
